According to a melting point compilation (Tetko et al.; mined from patent text by program, amines drawn as free bases though some values may be those of a salt):

Structure (SMILES) | melting point
Cc1ccc(Oc2ccc(OC(=O)N3CCC(C)CC3)cc2)cc1 | 79 to 81 °C
O=C(OC(c1ccccc1)c1ccccc1)C1=CCC2C1C(=O)C2(Cl)Cl (centres undefined) | 96 to 97 °C
NC(=O)CC(CC(N)=O)c1cccc(F)c1 | 194 to 196 °C
CCCCCCCCCCCCCCCC(=O)OCC(CO)OC(=O)CCCCCCCCCCCCCCC (centres undefined) | 67 to 68 °C
CCCCCS(=O)(=O)NC(=O)/C=C/c1ccc(OCCOC)cc1Oc1ncc(C(F)(F)F)cc1Cl | 123 to 125 °C
Cn1nnnc1-c1cn(C)c2cc(Br)ccc2c1=O | 292 to 294 °C
Cc1cc2c3c(cc(C)c2[nH]c1=O)C(C)C(C)(CN=[N+]=[N-])O3 (centres undefined) | 189 to 192 °C
CC(C)Cn1cccc1C(N)=S | 126 to 128 °C
CCC(C)N1C(=O)c2ccc(C)nc2C1=O (centres undefined) | 105 to 106 °C
Cn1nc(-c2ccc(Cl)cc2)nc1-c1cccnc1 | 157 to 158 °C
COC(=O)c1cc(OC)c(OCc2ccccc2)c(OC)c1 | 62 to 65 °C
CN(C(=O)On1cccn1)c1ccccc1 | 63 to 67 °C
CN1CCN(c2nc(=NC(=O)NC(C)(C)C)ss2)CC1 | 169 to 172 °C
CCOc1ccc(O)cc1C=O | 108 to 109 °C
CCC(COC)(OC)c1cccc(OCOC)c1 (centres undefined) | 74 to 75 °C
Cn1nc(CO)nc1NCC(O)CCOc1cccc(CN2CCCCC2)c1 (centres undefined) | 148 °C
CC(C)Oc1cccc2c1O[C@@H](COS(C)(=O)=O)CC2 | 77 to 78 °C
Nc1nc(Cc2ccccc2)ncc1C=S | 136 to 139 °C
CCCOc1ccc(S(=O)(=O)N2CCN(CCOC(C)=O)CC2)cc1-c1nc2c(CCC)cn(CC)c2c(=O)[nH]1 | 139 to 140 °C
CCOC(=O)NN=Cc1c[nH]c(C(C)(C)C)n1 | 194 to 197 °C
CCOc1nn(Cc2cccc(OCCn3ncc4ccccc4c3=O)c2)cc1CCC(=O)O | 146 to 147 °C
Cc1ccc(S(=O)(=O)NO[Si](C)(C)C)cc1 | 87 to 90 °C
OCC(=C(c1ccc(F)cc1)c1ccc(F)cc1)n1cnnn1 | 152 to 154 °C
CN(C)C(=O)CSc1nc2ccccc2cc1-c1ccccc1 | 86 to 89 °C
COc1ccc(COc2cccc(OC)c2C(C)=O)cc1 | 105 to 107 °C
COC(=O)CC1C(=O)Nc2cc(S(N)(=O)=O)sc2S1(=O)=O (centres undefined) | 223 to 225 °C

Structure (SMILES) | melting point
CN(C)CCOc1cnc(Nc2cc(-c3cccc(-n4ncc5cc(C(C)(C)C)cc(F)c5c4=O)c3CO)nn(C)c2=O)cn1 | 185 to 190 °C
COC(=O)c1ccc(-c2nc(COc3ccc(COc4nn(-c5ccccc5)cc4C=O)cc3OC)c(C)o2)cc1 | 190 to 191 °C
COc1cnc(N2CCN(c3ccc(-n4c(C)n[nH]c4=O)cc3)CC2)nc1 | > 300 °C
CSc1nncc(-c2ccco2)n1 | 88 to 90 °C
OCc1sc(Cl)nc1-c1ccc(F)cc1 | 97 to 98.5 °C
CCc1ccc(-c2cccc(-c3ccnc4c(C(=O)c5cccs5)cnn34)c2)cc1 | 117 to 119 °C
COc1ccc(C=CCN2CCC3(CC2)CN(C(=O)c2ccnc(Cl)c2)c2ccc(Cl)cc23)cc1 | 83 to 85 °C
CNc1nc(=O)c2ccccc2n1Cc1ccc(F)cc1 | 251 to 255 °C
CCS(=O)(=O)Nc1ccc(Cc2ccc(NC3=NCCN3)cc2)cc1 | 178 °C
CCCC(=O)Oc1ccc(OC(=O)CCC)c(C#N)c1C#N | 86 to 87 °C
COc1ccc(C2=NN(c3ccc(OCC(N)=O)cc3)C(=O)C(C)(C)C2)cc1OC | 184 to 187 °C
CCc1cccc2c1C(=O)N(Cn1nnn(-c3ccccc3)c1=S)S2(=O)=O | 127 to 129 °C
O=C1CCC(=O)N1CCCCSc1ccncc1 | 80 to 81 °C
Fc1ccc(-c2nc3ccccn3c2Br)c(F)c1 | 144 °C
COc1ccc(CCCS(=O)(=O)c2ccc(S(N)(=O)=O)s2)cc1 | 136 to 138 °C
CN1C(=O)C(CCCCBr)Sc2ccccc21 (centres undefined) | 116 °C
CC1(c2ccc(F)cc2)OC(C=Cc2ccccn2)=CC1=O (centres undefined) | 70 to 72 °C
CC[C@H](C)[C@H](NC(=O)N(C)Cc1ccccn1)C(=O)N[C@@H](Cc1ccccc1)C[C@H](O)[C@H](Cc1ccccc1)NC(=O)OCc1cncs1 | 64 to 67 °C
COC(=O)c1cc(OC)c(OS(=O)(=O)C(F)(F)F)cc1N | 85 to 87 °C
CN(N=Cc1ccc(C#N)cc1)C(=O)c1[nH]c2ccccc2c1-c1ccccc1 | 194 to 196 °C
Cn1nnnc1SCCCSc1nnnn1C | 142 to 144 °C
O=C(O)c1sc(Oc2ccc3c(c2)OCO3)c2c1CCc1cnoc1-2 | 226 to 228 °C
O=C(Cc1cccnc1)c1ccc(Cl)cc1Cl | 55 to 56 °C
Cc1ccc(-c2[nH]c3ccc(Cl)cc3c2-c2ccc(S(C)(=O)=O)cc2)cc1 | 238 to 240 °C
CCn1c(=O)c2c(nc(/C=C/c3ccc(OC)c(C)c3)n2C)n(CC)c1=O | 176 to 178 °C
CC(C)Cn1nc(-c2ccc(C(F)(F)F)cc2)cc(CO)c1=O | 146 °C

Structure (SMILES) | melting point
O=C1Cc2cc(F)ccc2Sc2ccccc21 | 98 to 100 °C
O=C(O)C1=Cc2ccc(Cl)cc2SC1C(F)(F)F (centres undefined) | 226 to 227 °C
N#Cc1c(NCCCN2CCCC2)ncc2c1-c1ccccc1C(c1ccc(Cl)c(Cl)c1)C2 (centres undefined) | 104 to 110 °C
CCc1nccn1CCCOCc1cccc(SC)c1NC(=O)CC1c2ccccc2Oc2ccccc21 | 159 to 160 °C
Oc1cc(-c2ncc(C(F)(F)F)cc2Cl)ccc1Cl | 105 to 107 °C
C1=C(COc2ccccc2)CCN(Cc2c[nH]c3ncccc23)C1 | 161 to 163 °C
Cc1cccc(-c2ccccc2NC(=N)N(C)C)c1 | 116 °C
CC=CCn1c(N(C(C)=O)c2cc(C)cc(C)c2)c(CC)c(=O)[nH]c1=O | 218 to 220 °C
COC=C(C(=O)OC)N(C)c1cccc(-c2ccccc2)n1 | 89 to 90 °C
CCCCCC(CC(=O)Nc1cc(CBr)ccc1C(C)(C)C)c1cccc2c1OCO2 (centres undefined) | 119 to 120 °C
CCOC(=O)Cc1c(C(=O)O)c(C)c(C(=O)c2ccc(C)cc2)n1C | 200 to 202 °C
Cn1c(N)cc(=O)n1-c1ccccc1 | 205 to 215 °C
CC(=O)OC1CCC2(C)C(=CCC3C2CCC2(C=CCl)C(OC(C)=O)CCC32)C1 (centres undefined) | 155 to 156 °C
COc1ccc(C2SCc3c(sc(N)c3C(=O)c3ccc(Cl)cc3)S2)cc1 (centres undefined) | 158 to 160 °C
Nc1nc(NC2CCC(CO)C2)c2ncn(C3C=CC(CO)C3)c2n1 (centres undefined) | 177 to 180 °C
O=C(O)CCC1CCCC2CC(=O)NC12 (centres undefined) | 180 to 181 °C
CC(C)(C)OC(=O)N[C@@H](C(=O)O)C1(C)CCCCC1 | 127 to 130 °C
CCOC(=O)c1c(NC)c(N=O)c2ccccn12 | 156 to 157 °C
CNC(=S)C1c2cc([N+](=O)[O-])ccc2OC(C)(C)C1O (centres undefined) | 203 to 207 °C
CC(C)(C)OC(=O)N[C@H]1C[C@@H](CON2C(=O)c3ccccc3C2=O)C1 | 120 to 122 °C
CCN(CC)CCNC(=O)N(CCS(=O)(=O)c1ccc(OC)cc1)C(C)C | 39.5 to 42 °C
CC(=O)Nc1nc(NC(C)=O)nc(C2CCC(c3ccccc3)CC2)n1 (centres undefined) | 235 to 236 °C
Cc1c(C(=O)O)oc2cc(S)ccc12 | 230 to 232 °C
CSC1=CC2=CN(SC)NN2C(SC)=N1 | 165 to 167 °C
Nc1ccc(NC(=O)CC(=O)c2ccccc2)cc1[N+](=O)[O-] | 182 to 183 °C
NS(=O)(=O)c1ccc(N2CCN(CC3OCCc4ccccc43)CC2)cc1 (racemic) | 218 °C

Structure (SMILES) | melting point
CCCCCCCCc1ccc(CCC(NC(C)=O)(C(O)OC(C)=O)C(O)OC(C)=O)cc1 (centres undefined) | 105 to 107 °C
CCOC(=O)c1cc(CC)sc1Nc1ccc(F)cc1[N+](=O)[O-] | 90 °C
CCOc1ccc2c(c1)C(C)(c1cc(NC(=O)c3cccnc3)ccc1Cl)C(=O)N2S(=O)(=O)c1ccc(C(=O)NC(C)(C)C)cc1OC (centres undefined) | 192 °C
COCCOc1cc2ncc(C#N)c(Nc3cc(OC)c(Cl)cc3Cl)c2cc1OC | 210 to 212 °C
O=C(CCC1CCNCC1)c1ccc2[nH]c3ccccc3c2c1 | 206 to 209 °C
C=C(C)c1cccc(C(C)(C)NSc2nc3ccccc3s2)c1 | 93 to 95 °C
CC(C)c1nc(CCOC2=CCCCCCC2)n(C)c1Sc1cc(Cl)cc(Cl)c1 | 73 to 74 °C
COc1ccc(C(O)(c2ccccc2)c2ccc(OC)cc2)cc1 | 122 to 124 °C
CC(C)(C)c1ccc(Cn2ccc3cc(-c4ccc(C(C)(C)C)cc4)ccc32)cc1 | 167 to 168 °C
C=CCOCc1[nH]c(=O)c(CC(C)C)[n+]([O-])c1N | 149 to 151 °C
CC(=O)N1CCCC2=C1CCc1cc(Cl)c(Cl)cc12 | 146 to 148 °C
CC(C)C(=O)N1CCC(c2nc3cc(-c4ccc(C(N)=O)c(F)c4)ccc3o2)CC1 | 193 to 196 °C
COCc1c(C)ccc(C(O)=S)c1C | 192 to 194 °C
CCOc1ccccc1N1C(=O)CC(N(O)c2ccccc2)C1=O (centres undefined) | 174 to 175 °C
C[C@H]1Oc2ccc(F)cc2NC(=O)[C@H]1N | 173 to 177 °C
C=C(c1ccc(OC)c(C)c1)c1ccc(C)c(Br)c1 | 48 to 51 °C
Cc1cccnc1-c1cc2cccnc2c(=O)[nH]1 | 225 to 227 °C
O=C(c1ccco1)N1Cc2c(-c3noc(C4CC4)n3)ncn2-c2ccccc21 | 190 to 191 °C
O=[N+]([O-])c1ccc(N2CCN(c3cc(N4CCCC4)nc(N4CCCC4)n3)CC2)cc1 | 200 to 201 °C
NNC(=S)NCc1ccc([N+](=O)[O-])cc1 | 196 to 198 °C
O=C(Cn1c(-c2ccncc2)ncc(NC(=O)OCc2ccccc2)c1=O)NC(Cc1ccccc1)C(=O)C(F)(F)F (centres undefined) | 182 to 185 °C
Clc1ccc(CCNc2ccc3ccc(NCCc4ccc(Cl)cc4)nc3c2)cc1 | 55 to 60 °C
CCc1nc(NC(=O)c2cc(Br)ccc2O)sc1-c1ccccc1 | 224 to 225 °C
CC(C)(CO)NS(=O)(=O)c1ccc(Cl)c(N)c1 | 108 °C
O=c1ccc(S(=O)(=O)c2cc3ccc(Cl)cc3[nH]2)n[nH]1 | > 250 °C
Cc1ccccc1Oc1cccc(CC(=O)O)c1O | 116 to 117 °C
